Source: PubChem BioAssay (NCI)
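A five-concentration, 48-hour dose response in 96-well plates underlies each endpoint, interpolated linearly between surrounding concentrations. Definition used: TGI = concentration required for complete inhibition of growth.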

How the values were obtained:
Experiment in all cases: NCI anticancer screen, dose series, 48 h
RXF 393 renal = system: RXF 393 renal
HT29 colon = system: HT29 colon
OVCAR-4 ovarian = system: OVCAR-4 ovarian
SK-MEL-5 melanoma = system: SK-MEL-5 melanoma
OVCAR-8 ovarian = system: OVCAR-8 ovarian
M14 melanoma = system: M14 melanoma
UACC-62 melanoma = system: UACC-62 melanoma
HCT-116 colon = system: HCT-116 colon
HOP-62 NSCLC = system: HOP-62 NSCLC
SR leukemia = system: SR leukemia
786-0 renal = system: 786-0 renal
SN12C renal = system: SN12C renal
EKVX NSCLC = system: EKVX NSCLC
SK-MEL-28 melanoma = system: SK-MEL-28 melanoma
U251 CNS = system: U251 CNS
MDA-N = system: MDA-N
HL-60(TB) leukemia = system: HL-60(TB) leukemia
RPMI-8226 leukemia = system: RPMI-8226 leukemia
A549 NSCLC = system: A549 NSCLC
OVCAR-5 ovarian = system: OVCAR-5 ovarian
HOP-92 NSCLC = system: HOP-92 NSCLC
NCI-H460 lung = system: NCI-H460 lung
SK-MEL-2 melanoma = system: SK-MEL-2 melanoma
K-562 leukemia = system: K-562 leukemia
CAKI-1 renal = system: CAKI-1 renal
NCI-H23 lung = system: NCI-H23 lung
IGROV1 ovarian = system: IGROV1 ovarian
SF-268 CNS = system: SF-268 CNS
NCI/ADR-RES ovarian = system: NCI/ADR-RES ovarian
MALME-3M melanoma = system: MALME-3M melanoma
SF-295 CNS = system: SF-295 CNS
SF-539 CNS = system: SF-539 CNS
PC-3 prostate = system: PC-3 prostate
OVCAR-3 ovarian = system: OVCAR-3 ovarian
ACHN renal = system: ACHN renal
SNB-19 CNS = system: SNB-19 CNS
SNB-75 CNS = system: SNB-75 CNS
SK-OV-3 ovarian = system: SK-OV-3 ovarian
TK-10 renal = system: TK-10 renal
UACC-257 melanoma = system: UACC-257 melanoma
CCRF-CEM leukemia = system: CCRF-CEM leukemia
COLO 205 colon = system: COLO 205 colon
NCI-H522 lung = system: NCI-H522 lung
HCC-2998 colon = system: HCC-2998 colon
HCT-15 colon = system: HCT-15 colon
MDA-MB-231 breast = system: MDA-MB-231 breast
DU-145 prostate = system: DU-145 prostate
HS 578T breast = system: HS 578T breast
BT-549 breast = system: BT-549 breast
T-47D breast = system: T-47D breast
UO-31 renal = system: UO-31 renal
MOLT-4 leukemia = system: MOLT-4 leukemia
MCF7 breast = system: MCF7 breast
MDA-MB-435 = system: MDA-MB-435
SW-620 colon = system: SW-620 colon
KM12 colon = system: KM12 colon
A498 renal = system: A498 renal
LOX IMVI melanoma = system: LOX IMVI melanoma
NCI-H226 lung = system: NCI-H226 lung

SMILES: [N-]=[N+]=Nc1ccc2c(c1)Sc1ccccc1N2CCCCN1CCN(Cc2ccc(C(=O)c3ccccc3)cc2)CC1
- TGI (RXF 393 renal): 5.37 µM
- TGI (HT29 colon): 3.53 µM
- TGI (OVCAR-4 ovarian): > 100 µM
- TGI (SK-MEL-5 melanoma): 4.09 µM
- TGI (OVCAR-8 ovarian): > 36.4 µM
- TGI (M14 melanoma): 3.95 µM
- TGI (UACC-62 melanoma): 6.1 µM
- TGI (HCT-116 colon): > 56.8 µM
- TGI (HOP-62 NSCLC): > 100 µM
- TGI (SR leukemia): > 24.3 µM
- TGI (786-0 renal): > 100 µM
- TGI (SN12C renal): > 100 µM
- TGI (EKVX NSCLC): > 100 µM
- TGI (SK-MEL-28 melanoma): 3.57 µM
- TGI (U251 CNS): > 100 µM
- TGI (MDA-N): > 100 µM
- TGI (HL-60(TB) leukemia): 10.1 µM
- TGI (RPMI-8226 leukemia): > 100 µM
- TGI (A549 NSCLC): > 100 µM
- TGI (OVCAR-5 ovarian): > 100 µM
- TGI (HOP-92 NSCLC): 11.7 µM
- TGI (NCI-H460 lung): > 100 µM
- TGI (SK-MEL-2 melanoma): 6.86 µM
- TGI (K-562 leukemia): > 100 µM
- TGI (CAKI-1 renal): > 65.4 µM
- TGI (NCI-H23 lung): > 80.8 µM
- TGI (IGROV1 ovarian): > 100 µM
- TGI (SF-268 CNS): > 100 µM
- TGI (NCI/ADR-RES ovarian): > 100 µM
- TGI (MALME-3M melanoma): 4.28 µM
- TGI (SF-295 CNS): > 100 µM
- TGI (SF-539 CNS): 23.1 µM
- TGI (PC-3 prostate): > 100 µM
- TGI (OVCAR-3 ovarian): > 100 µM
- TGI (ACHN renal): > 100 µM
- TGI (SNB-19 CNS): > 100 µM
- TGI (SNB-75 CNS): > 100 µM
- TGI (SK-OV-3 ovarian): > 100 µM
- TGI (TK-10 renal): > 96.2 µM
- TGI (UACC-257 melanoma): 4.41 µM
- TGI (CCRF-CEM leukemia): > 100 µM
- TGI (COLO 205 colon): 3.55 µM
- TGI (NCI-H522 lung): 4.43 µM
- TGI (HCC-2998 colon): 3.86 µM
- TGI (HCT-15 colon): > 100 µM
- TGI (MDA-MB-231 breast): 33 µM
- TGI (DU-145 prostate): > 100 µM
- TGI (HS 578T breast): > 100 µM
- TGI (BT-549 breast): > 66.1 µM
- TGI (T-47D breast): 22.7 µM
- TGI (UO-31 renal): > 27.9 µM
- TGI (MOLT-4 leukemia): > 100 µM
- TGI (MCF7 breast): > 23.3 µM
- TGI (MDA-MB-435): > 100 µM
- TGI (SW-620 colon): > 100 µM
- TGI (KM12 colon): > 100 µM
- TGI (A498 renal): > 29 µM
- TGI (LOX IMVI melanoma): 3.56 µM
- TGI (NCI-H226 lung): > 100 µM
